Test results as given in patent US11110139B2, “Application of anthocyanin extract in preparing pharmaceutical composition for preventing and treating cardiac toxicity induced by anthracyclines and pharmaceutical composition” (Northwest Institute of Plateau Biology, Chinese Academy of …, priority 2017, dated 2021).

Experiments:
[1] = system: bcl-2, bax, caspase-3 and caspase-9 protein expression in H9c2; experiment: Western blot of bcl-2, bax, caspase-3 and caspase-9 in H9c2; assay type: cell-based, rat; conditions: H9c2, 20 μM DOX alone, 24 h
Method: A rat cardiomyocyte cell line H9c2: a DMEM culture medium (containing 10% new-born calf serum, 2 mM glutamate and 1% streptomycin/penicillin) was employed to culture, and a culture condition was an aseptic environment at 37° C. and 5% CO2. The culture medium was replaced once every 2-3 d, and when cells were cultured for 24 h and 80% were aggregated, a medicament treatment was performed. A control group, a model group (containing 20 μM DOX), and a nitraria anthocyanin extract experimental group (containing 20 μM DOX and 5-500 μg/mL nitraria anthocyanin extract) were respectively provided, and after they were treated for 24 h, the cells were scrapped, and were collected by centrifugation; and after being cleaned by a phosphate buffer, the cells were resuspended in a lysis buffer. After cell debrises were removed by the centrifugation, a supernatant was collected and a soluble protein concentration was determined using a BCA protein concentration assay kit. A protein solute, after being separated by 12% SDS-PAGE electrophoresis, was transferred to a PVDF membrane and thereafter was labeled by bcl-2, bax, caspase-3 and caspase-9 antibodies. An optical density of a band was determined by Quantity One software (v4.62, American Bio-Rad Company). And αβ-tubulin was taken as a protein sample loading internal reference substance.

[2] = system: rat cardiomyocyte cell line H9c2; assay type: cell-based; conditions: 24 h, 20 μM
Method: (§1) A rat cardiomyocyte cell line H9c2: a DMEM culture medium (containing 10% new-born calf serum, 2 mM glutamate and 1% streptomycin/penicillin) was employed to culture, and a culture condition was an aseptic environment at 37° C. and 5% C02. The culture medium was replaced once every 2-3 d, and when cells were cultured for 24 h and 80% were aggregated, a medicament treatment was performed. A control group, a model group (containing 20 μM DOX), and a nitraria anthocyanin extract experimental group (containing 20 μM DOX and 5-500 μg/mL nitraria anthocyanin extract) were respectively provided, and after they were treated for 24 h, a change in cardiomyocyte apoptosis was detected by a flow cytometer according to operating instructions of a kit by employing an FITC-Annexin V/propidium iodide (PI) fluorescence double staining method.

[3] = system: rat cardiomyocyte cell line H9c2; assay type: cell-based; conditions: 24 h, 20 μM; remark: listed apart in the source
Method: as §1, with “CO2.” for “C02.”, “provided,” for “provided, and”, “an extracellular fluid was collected, and LDH and CK levels” for “a change”, “the extracellular fluid were” for “cardiomyocyte apoptosis was”, “by” for “by a flow cytometer according to operating instructions of a kit by”, “LDH and CK array kits.” for “an FITC-Annexin V/propidium iodide (PI) fluorescence double staining method.”

[4] = system: rat cardiomyocyte cell line H9c2; assay type: cell-based; conditions: 24 h, 20 μM; remark: listed apart in the source
Method: as §1, with “CO2.” for “C02.”, “aggregated, was transferred to a 96-well plate with a cell density being 1×10^5/well; after the cells were continued to culture for 24 h,” for “aggregated,”, “cell viability” for “change in cardiomyocyte apoptosis”, “by” for “by a flow cytometer according to operating instructions of a kit by employing”, “MTT” for “FITC-Annexin V/propidium iodide (PI) fluorescence double staining”

[5] = system: rat cardiomyocyte cell line H9c2; experiment: Aggregated level of cardiomyocyte ROS (DCFH-DA, flow cytometer); assay type: cell-based; conditions: H9c2, 20 μM DOX alone, 24 h
Method: A rat cardiomyocyte cell line H9c2: a DMEM culture medium (containing 10% new-born calf serum, 2 mM glutamate and 1% streptomycin/penicillin) was employed to culture, and a culture condition was an aseptic environment at 37° C. and 5% CO2. The culture medium was replaced once every 2-3 d, and when cells were cultured for 24 h and 80% were aggregated, a medicament treatment was performed. A control group, a model group (containing 20 μM DOX), and a nitraria anthocyanin extract experimental group (containing 20 μM DOX and 5-500 μg/mL nitraria anthocyanin extract) were respectively provided, and after they were treated for 24 h, 2′, 7′-dichlorodihydro-fluorescein diacetate (DCFH-DA, 20 μM) was added to incubate for 20 min at 37° C., and a flow cytometer was employed to detect an aggregated level of cardiomyocyte ROS. According to experimental results (as shown in FIG. 8), after the 20 μM DOX is treated for 24 h, the aggregated level of the cardiomyocyte ROS is increased to 3.5 times of a normal cell; and after the DOX and the 5-500 μg/mL nitraria anthocyanin extract are co-treated for 24 h, the aggregated level of the cardiomyocyte ROS only is 2.16-3.29 times of the normal cell.

Structure (SMILES): COc1cccc2c1C(=O)c1c(O)c3c(c(O)c1C2=O)C[C@@](O)(C(=O)CO)C[C@@H]3O[C@H]1C[C@H](N)[C@H](O)[C@H](C)O1 [DOX, doxorubicin]
- Bax/Bcl-2 protein expression ratio versus normal cell [1]: increased to two times of a normal cell
- bax protein expression [1]: significantly increased
- bcl-2 protein expression [1]: significantly reduced
- protein expression of cut and activated caspase-3 [1]: significantly increased
- protein expression of cut and activated caspase-9 [1]: significantly increased
- number of FITC-Annexin V positive cells [2]: 1.49%
- CK level in the extracellular fluid, times of a normal cell [3]: 2.87 times
- LDH level in the extracellular fluid, times of a normal cell [3]: 2.65 times
- cell viability, of a normal cell [4]: 62.12%
- aggregated level of cardiomyocyte ROS, times of a normal cell [5]: 3.5 times
